Where two headings read alike, the source gives them in different places. Marks after values point to notes of the source that are not given here.
How the values were obtained:
[1] = target: Bcl-XL (Homo sapiens, UniProt Q07817); assay: TR FRET competitive binding affinity, Bcl-XL; conditions: read-out: Target Affinity TR FRET, Bcl-XL
Method: (§1) A comparison of the binding affinity for each of the compounds was performed to determine target affinity, as measured by Time-Resolved Fluorescence Resonance Energy Transfer (TR FRET).

[2] = system: RS4;11 cells; assay: Cellular efficacy in Bcl-2 dependent tumor cell line RS4;11; type: cell-based, human; conditions: Homo sapiens, RS4-11; 10% HS
[3] = system: H146 cells; assay: Cellular efficacy in Bcl-XL dependent tumor cell line H146; type: cell-based; conditions: Homo sapiens, NCI-H146; 10% HS
[4] = system: FL5.12-Bcl-2 cells; assay: Cellular efficacy in FL5.12 cells dependent on Bcl-2; type: cell-based, murine; conditions: Mus musculus, 3% FBS
[5] = system: peripheral blood immune cells; assay: Peripheral blood lymphocytes in C57BL/6 mice, Cell Dyn hematology analyzer; type: in vivo; conditions: for inhibition in vivo at 100 mg/kg: Mus musculus, Lymphocyte
Method: The effect of the Bcl-2 selective/Bcl-XL sparing compounds on peripheral blood immune cells was also evaluated in C57BL/6 mice. Mice were treated four days with individual compounds (100 mg/kg, orally every day) and cell numbers were measured with a Cell Dyn hematology analyzer.

[6] = system: FL5.12-Bcl-XL cells; assay: Cellular efficacy in FL5.12 cells dependent on Bcl-XL; type: cell-based, murine; conditions: Mus musculus, 3% FBS
[7] = target: Bcl-2 (Homo sapiens, UniProt P10415); assay: TR FRET competitive binding affinity, Bcl-2; conditions: read-out: Target Affinity TR FRET, Bcl-2
Method: as §1

[8] = target: Mcl-1 (Homo sapiens, UniProt Q07820); assay: TR FRET competitive binding affinity, Mcl-1; conditions: read-out: Target Affinity TR FRET, Mcl-1
Method: as §1

[9] = system: IFNα-induced (NZB×NZW)F1 lupus model; assay: IFNα-induced (NZB×NZW)F1 lupus model: proteinuria, survival, lymphopenia; type: in vivo, (NZB×NZW)F1 mice; conditions: 100 mg/kg/day orally
Method: Treatment was initiated in a late-prophylactic mode (7 days after IFNα adenovirus). […] All treatment groups were administered treatment 7 days after adenovirus injection. Following adenovirus injection, mice were monitored weekly for proteinuria (PU) using Albustix test strips (VWR). Severe PU was defined by consecutive weekly measurements of PU≧300 mg/dl. When mice became moribund, they were sacrificed according to Institutional Animal Care and Use Committee protocols.

[10] = system: spontaneous (NZB×NZW)F1 murine model of lupus; assay: Spontaneous (NZB×NZW)F1 murine model of lupus: proteinuria, survival, lymphopenia; type: in vivo, (NZB×NZW)F1 mice; conditions: Week 47, 100 mg/kg daily oral
Source text: (See Liu, K. and C. Mohan, What do mouse models teach us about human SLE? Clin Immunol, 2006. 119(2): p. 123-30) This model has been well-characterized with respect to the patho-physiological changes analogous to those of human SLE. […] Renal histopathological changes include severe glomerulonephritis, mesangial and peripheral proliferative changes, capillary membrane thickening, tubular atrophy, and infiltration of lymphocytes and monocytes/macrophages as in the majority of human SLE patients. These changes result in disruption of kidney function as evidenced by severe proteinuria (PU) greater than 300 mg/dL as measured by albumin sticks, followed by mortality as measured by survival. […] (See Gelfand, M. C. and A. D. Steinberg, Therapeutic studies in NZB-W mice. II. Relative efficacy of azathioprine, cyclophosphamide and methylprednisolone. Arthritis Rheum, 1972. 15(3): p. 247-52; and Ramos, M. A., et al., Modulation of autoantibody production by mycophenolate mofetil: effects on the development of SLE in (NZB×NZW)F1 mice. Nephrol Dial Transplant, 2003. 18(5): p. 878-83)
(NZB×NZW)F1 females were purchased from The Jackson Laboratory (Bar Harbor, Me., USA) and maintained in a conventional animal housing facility throughout the experiment. […] Proteinuria (PU) and survival were monitored weekly, followed by biweekly measurement of lymphocyte and platelet counts, and anti-ds DNA production. PK parameters were also measured throughout the study. Impact on IgG deposition and renal pathology were assessed at the conclusion of the study. Severe PU was defined by two consecutive weekly measurements of PU 300 mg/dl using Albustix test strips (VWR). When mice became moribund, they were sacrificed according to Institutional Animal Care and Use Committee protocols. PU and survival data were presented as Kaplan-Meyer survival curves using Graphpad Prism software and group differences were considered significant at the level of p<0.05. Histologic scores were analyzed using ANOVA analysis. Anti-ds DNA were analyzed using one-way ANOVA analysis and Tukey post-test.

[11] = 24 h, 1 oral dose of 100 mg/kg, read-out: Day 1 % Reduction vs. Vehicle
[12] = 96 h, 4 oral doses of 100 mg/kg, read-out: Day 4 % Reduction vs. Vehicle

Sequence of Bcl-XL (Q07817 whole entry): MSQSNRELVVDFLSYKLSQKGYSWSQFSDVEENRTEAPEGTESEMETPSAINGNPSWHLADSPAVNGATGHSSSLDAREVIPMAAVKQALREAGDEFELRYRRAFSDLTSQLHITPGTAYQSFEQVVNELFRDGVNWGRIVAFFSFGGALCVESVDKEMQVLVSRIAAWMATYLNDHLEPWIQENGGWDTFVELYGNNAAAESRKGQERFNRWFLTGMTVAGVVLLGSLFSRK
Sequence of Bcl-2 (P10415 whole entry): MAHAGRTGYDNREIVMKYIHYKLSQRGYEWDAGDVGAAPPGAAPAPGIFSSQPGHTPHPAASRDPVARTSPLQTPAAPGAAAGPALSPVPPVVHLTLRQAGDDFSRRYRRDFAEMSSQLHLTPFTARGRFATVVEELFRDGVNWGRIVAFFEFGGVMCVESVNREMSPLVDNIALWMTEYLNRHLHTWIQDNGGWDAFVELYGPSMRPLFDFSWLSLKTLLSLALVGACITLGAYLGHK
Sequence of Mcl-1 (Q07820 whole entry): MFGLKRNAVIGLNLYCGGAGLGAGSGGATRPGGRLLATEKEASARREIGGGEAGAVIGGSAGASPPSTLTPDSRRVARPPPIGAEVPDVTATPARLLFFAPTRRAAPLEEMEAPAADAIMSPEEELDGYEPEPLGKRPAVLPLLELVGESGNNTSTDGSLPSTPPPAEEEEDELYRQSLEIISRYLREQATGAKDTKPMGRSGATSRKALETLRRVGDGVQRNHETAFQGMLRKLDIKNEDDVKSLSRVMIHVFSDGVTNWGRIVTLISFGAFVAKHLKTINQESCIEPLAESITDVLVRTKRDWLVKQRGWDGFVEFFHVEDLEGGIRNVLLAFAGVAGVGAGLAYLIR

Row | Compound | Ki [1] [nM] | EC50 [2] [nM] | EC50 [3] [nM] | EC50 [4] [nM] | Day 1 Lymphocytes ([5]; 1 oral dose of 100 mg/kg) | Day 4 lymphocytes ([5]; 4 oral doses of 100 mg/kg) | inhibition in vivo at 100 mg/kg [5, 11] [%] | inhibition in vivo at 100 mg/kg [5, 12] [%] | EC50 [6] [nM] | Ki [7] [nM] | Ki [8] [nM] | % Mice with PU < 300 mg/dL [9] | % Survival [9] | % Mice with PU < 300 mg/dL [10] | % Survival [10]
1 | CC1(C)CCC(CN2CCN(c3ccc(C(=O)NS(=O)(=O)c4ccc(N[C@H]5CC[C@H](N6CCOCC6)CC5)c([N+](=O)[O-])c4)c(Oc4cnc5[nH]ccc5c4)c3)CC2)=C(c2ccc(Cl)cc2)C1 [Compound 4, Trans-4-(4-{[2-(4-chlorophenyl)-4,4-dimethylcyclohex-1-en-1-yl]methyl}piperazin-1-yl)-N-({4-[(4-morpholin-4-ylcyclohexyl)amino]-3-nitrophenyl}sulfonyl)-2-(1H-pyrrolo[2,3-b]pyridin-5-yloxy)benzamide] | 7.2 | 32 | > 5000 | 1.2 | 2.62 ×10^6 | 1.72 ×10^6 | 57 | 73 | 70 | – | – | – | – | – | –
2 | CO[C@H]1CC[C@H](CNc2ccc(S(=O)(=O)NC(=O)c3ccc(N4CCN(CC5=C(c6ccc(Cl)cc6)CC(C)(C)CC5)CC4)cc3Oc3cnc4[nH]ccc4c3)cc2[N+](=O)[O-])CC1 [Compound 5, Trans-4-(4-{[2-(4-chlorophenyl)-4,4-dimethylcyclohex-1-en-1-yl]methyl}piperazin-1-yl)-N-[(4-{[(4-methoxycyclohexyl)methyl]amino}-3-nitrophenyl)sulfonyl]-2-(1H-pyrrolo[2,3-b]pyridin-5-yloxy)benzamide] | 126 | 8 | > 5000 | 1.2 | 0.98 ×10^6 | 1.02 ×10^6 | 84 | 84 | 67 | < 0.01 | – | – | – | – | –
3 | CC1(C)CCC(CN2CCN(c3ccc(C(=O)NS(=O)(=O)c4ccc(NC[C@H]5CN(C6CC6)CCO5)c([N+](=O)[O-])c4)c(Oc4cnc5[nH]ccc5c4)c3)CC2)=C(c2ccc(Cl)cc2)C1 [Compound 7, 4-(4-{[2-(4-chlorophenyl)-4,4-dimethylcyclohex-1-en-1-yl]methyl}piperazin-1-yl)-N-{[4-({[(2S)-4-cyclopropylmorpholin-2-yl]methyl}amino)-3-nitrophenyl]sulfonyl}-2-(1H-pyrrolo[2,3-b]pyridin-5-yloxy)benzamide] | 9.4 | 2.7 | 926 | – | 0.89 ×10^6 | 0.95 ×10^6 | 85 | 85 | – | – | – | – | – | – | –
4 | CN1CCN(Nc2ccc(S(=O)(=O)NC(=O)c3ccc(N4CCN(CC5=C(c6ccc(Cl)cc6)CC(C)(C)CC5)CC4)cc3Oc3cnc4[nH]ccc4c3)cc2[N+](=O)[O-])CC1 [Compound 10, 4-(4-{[2-(4-chlorophenyl)-4,4-dimethylcyclohex-1-en-1-yl]methyl}piperazin-1-yl)-N-({4-[(4-methylpiperazin-1-yl)amino]-3-nitrophenyl}sulfonyl)-2-(1H-pyrrolo[2,3-b]pyridin-5-yloxy)benzamide] | 21 | 31 | 2900 | 12 | 2.25 ×10^6 | 2.48 ×10^6 | 65 | 71 | 273 | – | > 440 | – | – | – | –
5 | CC1(C)CCC(CN2CCN(c3ccc(C(=O)NS(=O)(=O)c4ccc(OCC5(F)CCN(C6COC6)CC5)c(Cl)c4)c(Oc4cnc5[nH]ccc5c4)c3)CC2)=C(c2ccc(Cl)cc2)C1 [Compound 11, N-[(3-chloro-4-{[4-fluoro-1-(oxetan-3-yl)piperidin-4-yl]methoxy}phenyl)sulfonyl]-4-(4-{[2-(4-chlorophenyl)-4,4-dimethylcyclohex-1-en-1-yl]methyl}piperazin-1-yl)-2-(1H-pyrrolo[2,3-b]pyridin-5-yloxy)benzamide] | 12 | 12 | 2990 | – | 1.76 ×10^6 | 1.71 ×10^6 | 73 | 80 | – | – | – | – | – | – | –
6 | CC1(C)CCC(CN2CCN(c3ccc(C(=O)NS(=O)(=O)c4cnc(OCC5(F)CCOCC5)c(Cl)c4)c(Oc4cccc5[nH]ncc45)c3)CC2)=C(c2ccc(Cl)cc2)C1 [Compound 12, N-({5-chloro-6-[(4-fluorotetrahydro-2H-pyran-4-yl)methoxy]pyridin-3-yl}sulfonyl)-4-(4-{[2-(4-chlorophenyl)-4,4-dimethylcyclohex-1-en-1-yl]methyl}piperazin-1-yl)-2-(1H-indazol-4-yloxy)benzamide] | 23 | 17 | 2750 | 2.3 | 1.44 ×10^6 | 2.21 ×10^6 | 78 | 74 | 59 | < 0.01 | – | – | – | – | –
7 | CC1(C)CCC(CN2CCN(c3ccc(C(=O)NS(=O)(=O)c4cnc(OC[C@H]5CC[C@H](O)CC5)c(Cl)c4)c(Oc4cc(F)cc5[nH]ncc45)c3)CC2)=C(c2ccc(Cl)cc2)C1 [Compound 14, N-({5-chloro-6-[(trans-4-hydroxycyclohexyl)methoxy]pyridin-3-yl}sulfonyl)-4-(4-{[2-(4-chlorophenyl)-4,4-dimethylcyclohex-1-en-1-yl]methyl}piperazin-1-yl)-2-[(6-fluoro-1H-indazol-4-yl)oxy]benzamide] | 20 | 22 | 3540 | – | 3.02 ×10^6 | 2.33 ×10^6 | 54 | 73 | – | < 0.01 | – | – | – | – | –
8 | CC1(C)CCC(CN2CCN(c3ccc(C(=O)NS(=O)(=O)c4ccc(OCC5(F)CCOCC5)c(Cl)c4)c(Oc4cnc5[nH]ccc5c4)c3)CC2)=C(c2ccc(Cl)cc2)C1 [Compound 15, N-({3-chloro-4-[(4-fluorotetrahydro-2H-pyran-4-yl)methoxy]phenyl}sulfonyl)-4-(4-{[2-(4-chlorophenyl)-4,4-dimethylcyclohex-1-en-1-yl]methyl}piperazin-1-yl)-2-(1H-pyrrolo[2,3-b]pyridin-5-yloxy)benzamide] | 61 | 35 | > 5000 | – | 1.85 ×10^6 | 1.65 ×10^6 | 72 | 81 | – | – | – | – | – | – | –
9 | CC1(C)CCC(CN2CCN(c3ccc(C(=O)NS(=O)(=O)c4ccc(OCC5(F)CCOCC5)c([N+](=O)[O-])c4)c(Oc4cnc5[nH]ccc5c4)c3)CC2)=C(c2ccc(Cl)cc2)C1 [Compound 16, 4-(4-{[2-(4-chlorophenyl)-4,4-dimethylcyclohex-1-en-1-yl]methyl}piperazin-1-yl)-N-({4-[(4-fluorotetrahydro-2H-pyran-4-yl)methoxy]-3-nitrophenyl}sulfonyl)-2-(1H-pyrrolo[2,3-b]pyridin-5-yloxy)benzamide] | 15 | 2.1 | 3930 | 0.7 | 1.77 ×10^6 | 1.99 ×10^6 | 73 | 77 | 31 | – | – | – | – | – | –
10 | COc1c(C)c2c(c(O)c1C/C=C(\C)CCC(=O)OCCN1CCOCC1)C(=O)OC2 [MMF, mycophenolate mofetil, reference compound] | – | – | – | – | – | – | – | – | – | – | – | 40* % | 72* % | 94* % | 100* %
